Results: ChEMBL document CHEMBL2057207, “Fluorometric detection of adenine in target DNA by exciplex formation with fluorescent 8-arylethynylated deoxyguanosine” (Bioorg Med Chem Lett, 2012)
The source made the active and inactive calls. No cut-off for these calls is given here.

How the values were obtained:
Assay type in all cases: nucleic-acid assay
Nucleic Acid [1] = test: Binding affinity to DNA 3'-GCG TTA A ATT GCG-5' assessed as melting temperature
Nucleic Acid [2] = test: Binding affinity to DNA 3'-GCG TTA G ATT GCG-5' assessed as melting temperature
Nucleic Acid [3] = test: Binding affinity to DNA 3'-GCG TTA C ATT GCG-5' assessed as melting temperature
Nucleic Acid [4] = test: Binding affinity to DNA 3'-GCG TTA T ATT GCG-5' assessed as melting temperature
Nucleic Acid [5] = test: Binding affinity to DNA 3'-GCG TTA A ATT GCG-5' assessed as change in fluorescence emission at 2.5 uM by UV-Vis spectrophotometric analysis at pH 7
Nucleic Acid [6] = test: Binding affinity to DNA 3'-GCG TTA G ATT GCG-5' assessed as change in fluorescence emission at 2.5 uM by UV-Vis spectrophotometric analysis at pH 7
Nucleic Acid [7] = test: Binding affinity to DNA 3'-GCG TTA C ATT GCG-5' assessed as change in fluorescence emission at 2.5 uM by UV-Vis spectrophotometric analysis at pH 7
Nucleic Acid [8] = test: Binding affinity to DNA 3'-GCG TTA T ATT GCG-5' assessed as change in fluorescence emission at 2.5 uM by UV-Vis spectrophotometric analysis at pH 7
Nucleic Acid [9] = test: Binding affinity to DNA 3'-GCG TTA A ATT GCG-5' assessed as change in fluorescence emission at 2.5 uM by UV transilluminator analysis
Nucleic Acid [10] = test: Binding affinity to DNA 3'-GCG TTA G ATT GCG-5' assessed as change in fluorescence emission at 2.5 uM by UV transilluminator analysis
Nucleic Acid [11] = test: Binding affinity to DNA 3'-GCG TTA C ATT GCG-5' assessed as change in fluorescence emission at 2.5 uM by UV transilluminator analysis
Nucleic Acid [12] = test: Binding affinity to DNA 3'-GCG TTA T ATT GCG-5' assessed as change in fluorescence emission at 2.5 uM by UV transilluminator analysis

| Tm (Nucleic Acid [1]) | Tm (Nucleic Acid [2]) | Tm (Nucleic Acid [3]) | Tm (Nucleic Acid [4]) | Activity (Nucleic Acid [5]) | Activity (Nucleic Acid [6]) | Activity (Nucleic Acid [7]) | Activity (Nucleic Acid [8]) | Activity (Nucleic Acid [9]) | Activity (Nucleic Acid [10]) | Activity (Nucleic Acid [11]) | Activity (Nucleic Acid [12]) | SMILES |
| --- | --- | --- | --- | --- | --- | --- | --- | --- | --- | --- | --- | --- |
| 52.2 °C | 46.2 °C | 45.5 °C | 42.8 °C | Active | inactive | inactive | inactive | – | – | – | – | COc1cc(OC)c(C#Cc2nc3c(=O)[nH]c(N)nc3n2[C@H]2C[C@H](OP(=O)(O)OC[C@H]3O[C@@H](n4cc(C)c(=O)[nH]c4=O)C[C@@H]3OP(=O)(O)OC[C@H]3O[C@@H](n4cnc5c(N)ncnc54)C[C@@H]3OP(=O)(O)OC[C@H]3O[C@@H](n4cnc5c(N)ncnc54)C[C@@H]3OP(=O)(O)OC[C@H]3O[C@@H](n4ccc(N)nc4=O)C[C@@H]3OP(=O)(O)OC[C@H]3O[C@@H](n4cnc5c(=O)[nH]c(N)nc54)C[C@@H]3OP(=O)(O)OC[C@H]3O[C@@H](n4ccc(N)nc4=O)C[C@@H]3O)[C@@H](COP(=O)(O)O[C@H]3C[C@H](n4cc(C)c(=O)[nH]c4=O)O[C@@H]3COP(=O)(O)O[C@H]3C[C@H](n4cnc5c(N)ncnc54)O[C@@H]3COP(=O)(O)O[C@H]3C[C@H](n4cnc5c(N)ncnc54)O[C@@H]3COP(=O)(O)O[C@H]3C[C@H](n4ccc(N)nc4=O)O[C@@H]3COP(=O)(O)O[C@H]3C[C@H](n4cnc5c(=O)[nH]c(N)nc54)O[C@@H]3COP(=O)(O)O[C@H]3C[C@H](n4ccc(N)nc4=O)O[C@@H]3CO)O2)c(OC)c1 |
| 49.2 °C | 49.6 °C | 49.4 °C | 46.7 °C | Active | inactive | inactive | inactive | – | – | – | – | COc1ccc(C#Cc2nc3c(=O)[nH]c(N)nc3n2[C@H]2C[C@H](OP(=O)(O)OC[C@H]3O[C@@H](n4cc(C)c(=O)[nH]c4=O)C[C@@H]3OP(=O)(O)OC[C@H]3O[C@@H](n4cnc5c(N)ncnc54)C[C@@H]3OP(=O)(O)OC[C@H]3O[C@@H](n4cnc5c(N)ncnc54)C[C@@H]3OP(=O)(O)OC[C@H]3O[C@@H](n4ccc(N)nc4=O)C[C@@H]3OP(=O)(O)OC[C@H]3O[C@@H](n4cnc5c(=O)[nH]c(N)nc54)C[C@@H]3OP(=O)(O)OC[C@H]3O[C@@H](n4ccc(N)nc4=O)C[C@@H]3O)[C@@H](COP(=O)(O)O[C@H]3C[C@H](n4cc(C)c(=O)[nH]c4=O)O[C@@H]3COP(=O)(O)O[C@H]3C[C@H](n4cnc5c(N)ncnc54)O[C@@H]3COP(=O)(O)O[C@H]3C[C@H](n4cnc5c(N)ncnc54)O[C@@H]3COP(=O)(O)O[C@H]3C[C@H](n4ccc(N)nc4=O)O[C@@H]3COP(=O)(O)O[C@H]3C[C@H](n4cnc5c(=O)[nH]c(N)nc54)O[C@@H]3COP(=O)(O)O[C@H]3C[C@H](n4ccc(N)nc4=O)O[C@@H]3CO)O2)c2ccccc12 |
| – | – | – | – | inactive | inactive | inactive | inactive | – | – | – | – | Cc1cn([C@H]2C[C@H](OP(=O)(O)OC[C@H]3O[C@@H](n4c(C#Cc5ccccc5)nc5c(=O)[nH]c(N)nc54)C[C@@H]3OP(=O)(O)OC[C@H]3O[C@@H](n4cc(C)c(=O)[nH]c4=O)C[C@@H]3OP(=O)(O)OC[C@H]3O[C@@H](n4cnc5c(N)ncnc54)C[C@@H]3OP(=O)(O)OC[C@H]3O[C@@H](n4cnc5c(N)ncnc54)C[C@@H]3OP(=O)(O)OC[C@H]3O[C@@H](n4ccc(N)nc4=O)C[C@@H]3OP(=O)(O)OC[C@H]3O[C@@H](n4cnc5c(=O)[nH]c(N)nc54)C[C@@H]3OP(=O)(O)OC[C@H]3O[C@@H](n4ccc(N)nc4=O)C[C@@H]3O)[C@@H](COP(=O)(O)O[C@H]3C[C@H](n4cnc5c(N)ncnc54)O[C@@H]3COP(=O)(O)O[C@H]3C[C@H](n4cnc5c(N)ncnc54)O[C@@H]3COP(=O)(O)O[C@H]3C[C@H](n4ccc(N)nc4=O)O[C@@H]3COP(=O)(O)O[C@H]3C[C@H](n4cnc5c(=O)[nH]c(N)nc54)O[C@@H]3COP(=O)(O)O[C@H]3C[C@H](n4ccc(N)nc4=O)O[C@@H]3CO)O2)c(=O)[nH]c1=O |
| 49.7 °C | 49.8 °C | 50.5 °C | 45.1 °C | Active | inactive | inactive | inactive | Active | Active | Active | Active | COc1ccc(C#Cc2nc3c(=O)[nH]c(N)nc3n2[C@H]2C[C@H](OP(=O)(O)OC[C@H]3O[C@@H](n4cc(C)c(=O)[nH]c4=O)C[C@@H]3OP(=O)(O)OC[C@H]3O[C@@H](n4cnc5c(N)ncnc54)C[C@@H]3OP(=O)(O)OC[C@H]3O[C@@H](n4cnc5c(N)ncnc54)C[C@@H]3OP(=O)(O)OC[C@H]3O[C@@H](n4ccc(N)nc4=O)C[C@@H]3OP(=O)(O)OC[C@H]3O[C@@H](n4cnc5c(=O)[nH]c(N)nc54)C[C@@H]3OP(=O)(O)OC[C@H]3O[C@@H](n4ccc(N)nc4=O)C[C@@H]3O)[C@@H](COP(=O)(O)O[C@H]3C[C@H](n4cc(C)c(=O)[nH]c4=O)O[C@@H]3COP(=O)(O)O[C@H]3C[C@H](n4cnc5c(N)ncnc54)O[C@@H]3COP(=O)(O)O[C@H]3C[C@H](n4cnc5c(N)ncnc54)O[C@@H]3COP(=O)(O)O[C@H]3C[C@H](n4ccc(N)nc4=O)O[C@@H]3COP(=O)(O)O[C@H]3C[C@H](n4cnc5c(=O)[nH]c(N)nc54)O[C@@H]3COP(=O)(O)O[C@H]3C[C@H](n4ccc(N)nc4=O)O[C@@H]3CO)O2)cc1 |
